# Test system: angiotensin I converting enzyme
# Experiment: inhibition of the angiotensin I pressor response in anesthetized normotensive rats
# Assay type: in vivo
# Protocol: The enzyme renin, normally causes specific hydrolysis of the circulating protein renin-substrate. This hydrolysis generates angiotensin I, which is further hydrolyzed by the action of said converting enzyme to the potent vasoconstrictor angiotensin II. The inhibition of said enzyme prevents the generation of angiotensin II from I and, therefore, attenuates any pressure response following an angiotensin I challenge.
# The corresponding in vivo test is performed with male, normotensive rats, which are anesthetized with 100-120 mg/kg i.p. of sodium ethyl-(1-methylpropyl)malonylthiourea. A femoral artery and saphenous vein are cannulated for direct blood pressure measurement and i.v. administration of angiotensin I and compounds of this invention. After the basal blood pressure is stabilized, pressor responses to 3 challenges of 0.33 μg/kg of angiotensin I i.v., in 5 minute intervals, are obtained. Such pressure responses are again obtained 5, 10, 15, 30 and 60 minutes after either i.v., or p.o. administration (stomach tube) of the compounds to be tested, and compared with the initial responses. Any observed decrease of said pressor response is an indication of angiotensin I converting enzyme inhibition, ranging up to 80% after 10 mg/kg i.v., or 50 mg/kg p.o. doses, which decrease may be sustained up to 60 minutes.
compound,measurement,value
C[C@H](CS)C(=O)N1c2ccccc2C[C@H]1C(=O)O [1-(3-mercapto-2S-methylpropanoyl)-indoline-2S-carboxylic acid],inhibitory effect against the angiotensin I pressure response,inhibitory effect

# Reference: patent publication US4599357A, “1-mercaptoalkanoylindoline-2-carboxylic acids” (Ciba-Geigy Corporation, priority 1980, dated 1986)
